“Also recorded” adds a separate entry of the source.

One series concerns Normal (healthy) mice. Put plainly: Blood glucose in normal mice at basal glucose level (hypoglycemia test). To be noted: given 120 min after 40 mg oral glucose; PGG oral, insulin intraperitoneal. The protocol: Normal (healthy) mice were orally fed with 40 mg of glucose at time zero. […] Thus, PGG reduces blood glucose level when it is higher than normal.
Series [1] concerns 3T3-L1 adipocytes. Put plainly: Glucose transport stimulatory (GTS) activity, 2-deoxy-D-[3H]glucose uptake. To be noted: for GTS activity (in words): 3T3-L1 cell system; for glucose uptake by the cells: 20-40 μM. The series is classed as cell-based. The protocol: (§1) PGG, either as a mixture or as single isomer (α or β), is added to either adipocytes (A) or preadipocytes (B). GTS activity (A) and AD activity (B) of PGG are measured by ^3H-glucose uptake. GLUT4 is not expressed in preadipocytes, so glucose uptake can be used as an indirect measurement of adipocyte differentiation.
Glucose uptake activity in cells may be analyzed by measuring the uptake of 2-deoxy-D-[^3H] glucose using a standard assay. Confluent 3T3-L1 adipocytes grown in 12-well plates are washed twice with serum-free DMEM and incubated with 1 mL of the same medium at 37° C. for 2 h. The cells are washed 3 times with Krebs-Ringer-Hepes (KRP) buffer and incubated with 0.9 mL KRP buffer at 37° C. for 30 min. […] Glucose uptake is initiated by addition of 0.1 mL KRP buffer and 37 MBq/L 2-deoxy-D-[^3H] glucose and 1 mmol/L glucose as final concentrations. After 10 min, glucose uptake is terminated by washing the cells 3 times with cold PBS. The cells are lysed with 0.7 mL of 1% Triton X-100 at 37° C. for 20 min. The radioactivity retained by the cell lysates is determined by a scintillation counter. The dosage that induces the maximal glucose uptake can be selected among the experimental samples.
3T3-L1 adipocytes were purchased from ATCC, and maintained and passed as preadipocytes in DMEM supplemented with 10% calf serum in a 37° C. incubator with 10% CO2 as required by the cells. The cells were induced to differentiate into adipocytes by addition of MDI induction cocktail as described in Liu, F., Kim, J., Li, Y., Liu, X., Li, J. & Chen, X. (2001) An extract of Lagerstroemia speciosa L. has insulin-like glucose uptake-stimulatory and adipocyte differentiation-inhibitory activities in 3T3-L1 cells. J. Nutrition 131:2242-224, which is specifically incorporated herein by reference. Varying amounts of α-PGG and β-PGG were then added to the medium and the amount of glucose taken up by control and treated cells determined using a standard glucose uptake assay, as described in Liu et al. As shown in FIG. 2A chemically synthesized and plant derived β-PGG have similar glucose transport stimulatory (GTS). The GTS activity of α-PGG is consistently 10-20% higher than that of β-PGG (FIG. 2).
Confluent 3T3-L1 adipocytes grown in 12-well plates were washed twice with serum-free DMEM and incubated with 1 mL of the same medium at 37° C. for 2 h. The cells were washed 3 times with Krebs-Ringer-Hepes (KRP) buffer and incubated with 0.9 mL KRP buffer at 37° C. for 30 min. Compounds listed in the table below were then added at 20-40 μM (final concentration?) and adipocytes were incubated at 37° C. for 15 min. Glucose uptake was initiated by addition of 0.1 mL KRP buffer and 37 MBq/L 2-deoxy-D-[3H] glucose and 1 mmol/L glucose as final concentrations. After 10 min, glucose uptake was terminated by washing the cells 3 times with cold PBS. The cells were lysed with 0.7 mL of 1% Triton X-100 at 37° C. for 20 min. The radioactivity retained by the cell lysates is determined by a scintillation counter.

In series [2] the test system is 3T3-L1 preadipocytes. Briefly: Clonal expansion / cell proliferation assay by LDH activity. The series is classed as cell-based. As to conditions: in the presence of MDI, FIG. 10. The protocol:
Preadipocytes were induced to undergo clonal expansion by MDI, or α-PGG, or β-PGG in the presence of MDI. 24 or 48 hrs after induction, the media was removed and the cells were lysed. The […] (LDH) activity of the cell lysates was measured by LDH kit. Cell growth media were also collected and their LDH activity from dead cells was also measured (not shown on this graph). LDH activity is a constant per cell in a given cell type, the LDH activity measured is proportional to the number of cells in the samples.
A cell proliferation assay was used to determine if PGG inhibits adipocyte differentiation by blocking clonal expansion. […] The basis for the difference between the anomers in clonal expansion and differentiation is not known.

In series [3] the target is T1, insulin receptor IR in 3T3-L1 adipocytes (Mus musculus, UniProt P15208).
T1 construct: host or cells: 3T3-L1 adipocytes
Briefly: 125I-insulin binding in the presence of PGG. As to conditions: FIG. 4.

For the next series, the system named is gelatin, BSA, ovalbumin. Put plainly: Competitive protein binding assay with 125I BSA tracer. As to conditions: FIG. 5. How it is done: A fixed quantity of ^125I BSA was incubated with PGG in the presence of variable amount of either cold gelatin, or BSA, or ovalbumin. Bound was separated from free by precipitation and was expressed as the % bound in the absence of competitor.
A competitive binding assay using radiolabeled bovine serum albumin (BSA) as the tracer was used to determine whether PGG can bind proteins selectively. The relative affinities of three standard proteins for PGG differ from one another by at least 10-fold (FIG. 5), and the difference of the binding affinities of PGG to gelatin and ovalbumin is more than 100-fold.

The next series has as its system Akt in 3T3-L1 adipocytes. Put plainly: Western blot of Akt phosphorylation. As to conditions: PGG 15 μM and 30 μM, FIG. 7. The series is classed as cell-based. The source says:
Differentially treated adipocytes were lysed, the cell proteins analyzed by SDS-PAGE.

Series [4] deals with 3T3-L1 preadipocytes. Briefly: Adipocyte differentiation (AD) of preadipocytes, MDI induction, Oil Red O staining and glucose uptake. The series is classed as cell-based. The protocol:
as §1
Ten days after induction, the cells were stained with Oil Red 0 and photographed at magnification X200. Only those cells that contain fat vesicles (triglyceride) can be stained.
After about 10 days MDI induces differentiation, which is clearly visible as the change from fibroblast-like preadipcytes to round-shaped, fat vesicle-containing adipocytes.
3T3-L1 adipocytes were purchased from ATCC, and maintained and passed as preadipocytes in DMEM supplemented with 10% calf serum in a 37° C. incubator with 10% CO2 as required by the cells. To test the effect of PGG on adipogenesis, the preadipocytes were incubated either with a differentiation-induction cocktail comprised of 3-isobutyl-1-methylxanthine, […], a cocktail comprised of 3-isobutyl-1-methylxanthine, dexamethasone (MD) and PGG; or with MDI plus PGG.
In order to study the mechanism by which PGG inhibits 3T3-L1 preadipocyte differentiation, we used gene expression studies. This strategy allows us to determine whether PGG specifically acts on genes that participate in the differentiation process. […] After about 10 days MDI induces differentiation, which is clearly visible as the change from fibroblast-like preadipcytes to round-shaped, fat vesicle-containing adipocytes (FIG. 8 middle).

The subject of series [5] is PPARγ and C/EBPα gene expression in 3T3-L1 preadipocytes. Put plainly: Northern blot analysis of differentiation gene expression. As to conditions: FIG. 9. The series is classed as cell-based. How it is done: FIG. 9. Northern blot analysis of PPARγ and C/EBPα gene expression in 3T3-L1 preadipocytes. Differentially treated preadipocytes were analyzed for their mRNA expression at various times post treatment. Lane 1: No treatment; Lane 2=MDI; Lane 3=30 μM PGG+MDI; Lane 4=30 μM of PGG alone. Times=times post treatment when mRNA was isolated.
At various times the treated cells were harvested, the total RNA was isolated, and expression was analyzed by Northern blots using probes complementary to various genes that are involved in the differentiation process.

In another series the test system is ob/ob mice. Put plainly: Glucose tolerance test in ob/ob mice. As to conditions: ob/ob mice. The series is classed as in vivo. The protocol:
FIG. 11. Effect of PGG on blood glucose levels in db/db and ob/ob mice. Various doses of α-PGG were orally delivered without glucose to db/db mice(A) or with glucose to ob/ob mice (B) mice. At different times post the delivery, glucose was determined in samples from tail blood.
FIG. 12. PGG protects ob/ob mice from hyperglycemia immediately after glucose challenge and hypoglycemia several days after the challenge. At various time points after the glucose challenge, blood glucose levels were measured in tail blood.
To determine if α-PGG is also effective in improving glucose tolerance in diabetic and obese mice, a glucose tolerance test was performed using ob/ob mice. Glucose or glucose plus α-PGG were orally delivered into male ob/ob mice, and blood glucose levels were measured at various times post glucose/PGG administration.
A single high does of glucose in ob/ob mice can be fatal, either because of the very high levels of blood glucose levels […] after the glucose challenge or because of the abnormally low glucose levels 2-3 days after the glucose challenge. […] Although the protection mechanisms are unknown at this time, it is very likely that α-PGG protected the ob/ob mice not only by its GTS activity, but also some other activity such as AD-related activity.

Series [6] concerns 3T3-L1 adipocytes. Put plainly: Glucose transport induced by insulin or PGG in the presence of insulin-signaling pathway inhibitors. The series is classed as cell-based. To be noted: FIG. 6. How it is done: The glucose transport activity of the treated cells was measured by ^3H glucose taken up by the cells. HNMPA-(AM)3 inhibits IR Tyr kinase activity, Cytochalasin B inhibits GLUT4, Wortmannin inhibits PI-3K, respectively.

T1 sequence (P15208 28-748 limits assumed): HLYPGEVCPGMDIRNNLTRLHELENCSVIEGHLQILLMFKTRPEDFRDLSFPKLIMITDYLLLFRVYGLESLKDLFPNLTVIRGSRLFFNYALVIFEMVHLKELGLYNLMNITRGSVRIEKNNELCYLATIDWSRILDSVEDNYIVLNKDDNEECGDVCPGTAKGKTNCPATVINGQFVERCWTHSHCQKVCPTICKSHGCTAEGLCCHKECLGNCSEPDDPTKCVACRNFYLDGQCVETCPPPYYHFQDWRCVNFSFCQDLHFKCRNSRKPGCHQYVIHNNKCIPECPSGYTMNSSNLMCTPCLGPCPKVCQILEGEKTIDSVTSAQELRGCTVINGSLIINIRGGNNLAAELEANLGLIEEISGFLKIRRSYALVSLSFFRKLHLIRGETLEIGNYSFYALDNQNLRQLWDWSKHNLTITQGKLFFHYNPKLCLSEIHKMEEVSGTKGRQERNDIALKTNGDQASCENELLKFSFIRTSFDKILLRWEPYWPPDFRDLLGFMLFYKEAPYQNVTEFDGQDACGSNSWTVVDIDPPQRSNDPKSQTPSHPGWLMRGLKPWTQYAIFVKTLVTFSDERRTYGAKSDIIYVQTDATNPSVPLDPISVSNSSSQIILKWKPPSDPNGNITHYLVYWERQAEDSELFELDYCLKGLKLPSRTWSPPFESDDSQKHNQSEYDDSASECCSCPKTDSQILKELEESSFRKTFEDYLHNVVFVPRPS
T1 sequence (P15208 753-1372 limits assumed): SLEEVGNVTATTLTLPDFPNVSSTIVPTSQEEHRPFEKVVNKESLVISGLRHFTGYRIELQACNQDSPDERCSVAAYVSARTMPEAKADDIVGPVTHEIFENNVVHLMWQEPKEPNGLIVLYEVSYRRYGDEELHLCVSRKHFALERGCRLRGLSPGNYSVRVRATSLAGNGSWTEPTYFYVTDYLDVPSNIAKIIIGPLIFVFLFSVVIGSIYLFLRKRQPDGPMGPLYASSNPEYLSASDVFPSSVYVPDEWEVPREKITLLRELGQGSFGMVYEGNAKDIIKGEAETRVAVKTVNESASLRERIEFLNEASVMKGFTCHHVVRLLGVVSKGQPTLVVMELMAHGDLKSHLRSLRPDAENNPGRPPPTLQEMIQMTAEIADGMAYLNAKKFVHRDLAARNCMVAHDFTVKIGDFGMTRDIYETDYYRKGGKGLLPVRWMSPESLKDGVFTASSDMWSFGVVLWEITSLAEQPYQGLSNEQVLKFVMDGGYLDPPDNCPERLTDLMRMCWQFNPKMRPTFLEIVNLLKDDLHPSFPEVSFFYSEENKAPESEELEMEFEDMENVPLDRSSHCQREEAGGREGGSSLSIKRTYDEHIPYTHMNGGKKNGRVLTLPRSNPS

Turning to “insulin: hormone, positive control [reference compound]”, the “hypoglycemia / blood glucose below basal levels” value in the series with Normal (healthy) mice is given as “resulted in a hypoglycemic condition”.

As to `O=C(O[C@@H]1Cc2c(O)cc(O)cc2O[C@@H]1c1cc(O)c(O)c(O)c1)c1cc(O)c(O)c(O)c1` [EGCG, reference compound], the “GTS activity (in words)” value with 3T3-L1 adipocytes [1] is on record as “no activity”.

Take `O=C(OC[C@H]1OC(OC(=O)c2cc(O)c(O)c(O)c2)[C@H](OC(=O)c2cc(O)c(O)c(O)c2)[C@@H](OC(=O)c2cc(O)c(O)c(O)c2)[C@H]1OC(=O)c1cc(O)c(O)c(O)c1)c1cc(O)c(O)c(O)c1` (stereo partly shown) [PGGal, Pentagalloyl galactose]: the “GTS activity relative to PGG” value in the series with 3T3-L1 adipocytes [1] (3T3-L1 cells) is 60-70%.

Turning to `O=C(OC[C@H]1O[C@@H](OC(=O)c2cc(O)c(O)c(O)c2)[C@H](OC(=O)c2cc(O)c(O)c(O)c2)[C@@H](OC(=O)c2cc(O)c(O)c(O)c2)[C@@H]1OC(=O)c1cc(O)c(O)c(O)c1)c1cc(O)c(O)c(O)c1` [β-PGG, 1,2,3,4,6-penta-O-galloyl-β-D-glucose], in the series on 3T3-L1 adipocytes [1] (3T3-L1 adipocytes, FIG. 2A), the “GTS activity, synthesized versus plant derived β-PGG” value is recorded as “similar”. For the same molecule, in the series with 3T3-L1 preadipocytes [2], the “first round of clonal expansion” value is “not inhibited” and the “second round of clonal expansion” value is reported as “completely inhibited”.

Turning to `O=C[C@H](OC(=O)c1cc(O)c(O)c(O)c1)[C@@H](OC(=O)c1cc(O)c(O)c(O)c1)[C@H](OC(=O)c1cc(O)c(O)c(O)c1)[C@@H](COC(=O)c1cc(O)c(O)c(O)c1)OC(=O)c1cc(O)c(O)c(O)c1` [PGG, penta-O-galloyl-D-glucose], in the series with 3T3-L1 adipocytes [1], the “GTS activity (in words)” value is given as “high activities”. Further, the “competition with / displacement of insulin at the insulin binding site on IR” value in series [3] (8 pM 125I-insulin, 0.1 to 20 μM PGG, overnight 4° C.) is on record as “does not compete with insulin; also recorded: unable to displace insulin from IR”. For the same molecule, the “insulin binding at higher PGG concentrations” value in series [3] (PGG above 20 μM) is reported as “Insulin binding increased”. Besides, in the series with gelatin, BSA, ovalbumin, the “difference of binding affinities of PGG to gelatin and ovalbumin” value is on record as “more than 100 fold”. Moreover, the “difference between relative affinities of three standard proteins for PGG” value in the series on gelatin, BSA, ovalbumin (gelatin, BSA, ovalbumin) is given as “at least 10 fold”. The “phosphorylation of Akt” value with Akt in 3T3-L1 adipocytes is reported as “phosphorylated”. Further, the “induction of differentiation when insulin in MDI was substituted by PGG” value in the series with 3T3-L1 preadipocytes [4] (MD plus PGG, FIG. 2B) is “failed to induce differentiation”. Moreover, the “differentiation of preadipocytes treated with MDI plus compound” value in the series on 3T3-L1 preadipocytes [4] (about 10 days, 30 μM PGG, FIG. 8) is “retain their fibroblast-like morphology and remain fat vesicle-free”. Besides, in [5] (30 μM PGG+MDI), the “expression of genes PPAR-γ, c/EBP induced by MDI” value is “completely abolished”. Also, the β-actin expression entry in series [5] is “not significantly affected”. Further, in the series with ob/ob mice, the toxic effects entry was “No PGG-related toxic effects were observed”. Besides, the “hypoglycemia / blood glucose below basal levels” value in the series with Normal (healthy) mice was “does not further reduce bood glucose levels beyond normal or basal levels”.

As to `O=C(O[C@H]1OC[C@@H](OC(=O)c2cc(O)c(O)c(O)c2)[C@H](OC(=O)c2cc(O)c(O)c(O)c2)[C@H]1OC(=O)c1cc(O)c(O)c(O)c1)c1cc(O)c(O)c(O)c1` [α-XylG4, Tetrakis-O-(3,4,5-trihydroxybenzoyl) -α-D-xylopyranose], in the series on 3T3-L1 adipocytes [1] (3T3-L1 adipocytes), the “glucose uptake by the cells” value is recorded as “increased glucose uptake”.

In the case of `O=C(OC[C@H]1O[C@@H](OC(=O)c2ccc(O)c(O)c2)[C@H](OC(=O)c2ccc(O)c(O)c2)[C@@H](OC(=O)c2ccc(O)c(O)c2)[C@@H]1OC(=O)c1ccc(O)c(O)c1)c1ccc(O)c(O)c1` [β-Glc(G-3,4-OH2)5, Pentakis-O-(3,4-dihydroxybenzoyl) -β-D-glucopyranose], the “glucose uptake by the cells” value in the series on 3T3-L1 adipocytes [1] (3T3-L1 adipocytes) is on record as “increased glucose uptake”.

`C=C1[C@@H](C)[C@H]2[C@H](Cc3ccccc3)NC(=O)[C@]23OC(=O)/C=C/[C@H](O)CCC[C@@H](C)C/C=C/[C@H]3[C@@H]1O` [cytochalasin B]: in the series on 3T3-L1 adipocytes [6], the “inhibition of the GTS activity mediated by either insulin or PGG” value is reported as “completely inhibited”.

Regarding pentagalloyl deoxynojirimycin [PG-DJM], in the series with 3T3-L1 adipocytes [1], the “GTS activity (in words)” value was “no detectable GTS activity”.

These data come from patent US20060058243A1, “Methods and compositions for treating diabetes mellitis” (priority 2002, published 2006).
